These results are taken from paper PMC10744336, “Functional Identification of Olfactory Receptors of Cnaphalocrocis medinalis (Lepidoptera: Crambidae) for Plant Odor” (Insects, 2023).

Assay in all cases: two-electrode voltage clamp, Xenopus oocytes
Assay type in all cases: cell-based
On the technique in general: Two-electrode voltage clamp holds a large cell at a set potential and records current.

The target of assay [1] is T1, CmedOR32/ORco (Cnaphalocrocis medinalis, UniProt A0A1B2G2M9).
T1 construct: full ORF cloned in pT7Ts; cRNA co-injected with CmedORco in Xenopus oocytes; with Odorant receptor coreceptor
T1 sequence (A0A1B2G2M9 1-389): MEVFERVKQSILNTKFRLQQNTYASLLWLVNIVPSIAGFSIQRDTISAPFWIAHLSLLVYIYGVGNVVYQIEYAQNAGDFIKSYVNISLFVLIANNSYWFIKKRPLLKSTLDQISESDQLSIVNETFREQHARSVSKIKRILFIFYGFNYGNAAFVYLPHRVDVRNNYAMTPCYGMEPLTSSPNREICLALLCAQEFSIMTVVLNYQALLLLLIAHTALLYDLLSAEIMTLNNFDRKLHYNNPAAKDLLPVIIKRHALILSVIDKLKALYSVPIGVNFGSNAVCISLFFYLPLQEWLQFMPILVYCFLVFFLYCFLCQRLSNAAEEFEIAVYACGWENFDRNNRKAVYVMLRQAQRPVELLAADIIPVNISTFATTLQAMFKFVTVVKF
T1 sequence (H9XFD5 1-473 partner): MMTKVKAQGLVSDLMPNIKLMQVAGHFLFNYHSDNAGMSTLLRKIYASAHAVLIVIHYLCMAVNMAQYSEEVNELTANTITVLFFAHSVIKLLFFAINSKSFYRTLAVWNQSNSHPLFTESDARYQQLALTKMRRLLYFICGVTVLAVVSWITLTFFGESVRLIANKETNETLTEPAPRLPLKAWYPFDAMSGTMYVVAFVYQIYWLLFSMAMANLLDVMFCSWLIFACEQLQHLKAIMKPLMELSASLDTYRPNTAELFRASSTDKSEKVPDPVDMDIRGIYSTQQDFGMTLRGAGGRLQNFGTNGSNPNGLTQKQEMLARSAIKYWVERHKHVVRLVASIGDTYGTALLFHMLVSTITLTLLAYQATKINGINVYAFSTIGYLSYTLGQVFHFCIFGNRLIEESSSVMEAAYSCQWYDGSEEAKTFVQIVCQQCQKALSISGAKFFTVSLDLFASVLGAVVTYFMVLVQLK
The settings on record: agonist; with CmedORco; -80 mV; pH 7.5; 15 s stimulus; concentration contradictory (text 0.1 μM, figure legend 10^-4 M).

In assay [2] the target is T2, CmedOR31/ORco (Cnaphalocrocis medinalis, UniProt A0A1B2G2M5).
T2 construct: full ORF cloned in pT7Ts; cRNA co-injected with CmedORco in Xenopus oocytes; with Odorant receptor coreceptor
T2 sequence (A0A1B2G2M5 1-408): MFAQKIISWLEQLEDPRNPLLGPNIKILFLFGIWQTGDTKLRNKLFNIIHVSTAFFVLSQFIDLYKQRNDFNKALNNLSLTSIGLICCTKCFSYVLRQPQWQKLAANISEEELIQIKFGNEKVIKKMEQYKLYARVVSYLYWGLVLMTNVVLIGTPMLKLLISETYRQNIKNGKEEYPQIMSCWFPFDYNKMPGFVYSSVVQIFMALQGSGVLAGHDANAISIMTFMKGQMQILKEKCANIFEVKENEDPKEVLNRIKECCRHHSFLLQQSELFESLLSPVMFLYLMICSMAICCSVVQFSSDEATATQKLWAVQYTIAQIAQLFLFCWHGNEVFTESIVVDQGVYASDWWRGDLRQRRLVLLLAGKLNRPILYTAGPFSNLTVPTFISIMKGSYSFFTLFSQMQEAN
T2 sequence (H9XFD5 1-473 partner): T1 sequence (H9XFD5 1-473 partner)
Conditions: agonist; with CmedORco; -80 mV; pH 7.5; 15 s stimulus; concentration contradictory (text 0.1 μM, figure legend 10^-4 M).

For assay [3], the target named is T3, CmedOR1/ORco (Cnaphalocrocis medinalis, UniProt A0A0U3A934).
T3 construct: gene or1; full ORF cloned in pT7Ts; cRNA co-injected with CmedORco in Xenopus oocytes; with Odorant receptor coreceptor
T3 sequence (A0A0U3A934 1-448): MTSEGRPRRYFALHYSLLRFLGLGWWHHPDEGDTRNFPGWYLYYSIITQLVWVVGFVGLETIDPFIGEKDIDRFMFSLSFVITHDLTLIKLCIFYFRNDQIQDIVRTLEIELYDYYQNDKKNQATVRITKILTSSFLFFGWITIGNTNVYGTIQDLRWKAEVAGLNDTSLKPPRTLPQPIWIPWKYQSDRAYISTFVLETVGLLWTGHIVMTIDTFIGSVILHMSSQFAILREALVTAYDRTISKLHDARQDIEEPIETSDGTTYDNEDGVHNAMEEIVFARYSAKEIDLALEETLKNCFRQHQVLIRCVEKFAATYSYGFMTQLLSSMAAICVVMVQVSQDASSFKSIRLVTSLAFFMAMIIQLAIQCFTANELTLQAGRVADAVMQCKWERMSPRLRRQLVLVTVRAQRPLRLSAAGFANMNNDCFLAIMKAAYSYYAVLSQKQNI
T3 sequence (H9XFD5 1-473 partner): T1 sequence (H9XFD5 1-473 partner)
The settings on record: agonist, with CmedORco, -80 mV, pH 7.5, 15 s stimulus, concentration contradictory (text 0.1 μM, figure legend 10^-4 M).

Assay [4] concerns the target T3, CmedOR1/ORco. The settings on record: agonist; with CmedORco; -80 mV; pH 7.5; 15 s stimulus; 10^-4 M (b31 also prints 0.1 μM).

The structures appear in SMILES notation.

Consider `CCC/C=C/C=O` [E2-hexenal], for which the inward current result in assay [1] was “plant foliar odorants cis-3-hexenyl acetate, E2-hexenal, and β-caryophyllene”. On to `CCCC(=O)OCC` [Ethyl butyrate], for which, in assay [1], the inward current result is “floral volatile compounds methyl 2-methoxybenzoate, β-myrcene, and ethyl butyrate”. Regarding `CC(C)=CCC/C(C)=C/CO` [Geraniol], the inward current in assay [2] worked out at 128 ± 16 nA. For the molecule `C=CC(C)(O)CCC=C(C)C` (stereo not shown) [Linalool], the inward current in assay [3] came out at 64 ± 5 nA. Regarding `COC(=O)c1ccccc1OC` [Methyl 2-methoxybenzoate], in assay [1], the inward current result is “floral volatile compounds methyl 2-methoxybenzoate, β-myrcene, and ethyl butyrate”. `OCCc1ccccc1` [Phenethyl alcohol] had an inward current in assay [3] (printed as two isomers, phenethyl alcohol and 2-phenethyl alcohol) of 130 ± 10 nA. Consider `O=CCc1ccccc1` [Phenylacetaldehyde], for which, in assay [4], the “inward current at 10^-4 M” value was determined as 3200 ± 86 nA. For `CC/C=C\CCOC(C)=O` [cis-3-Hexenyl acetate], in assay [1], the inward current entry is recorded as “CmedOR32 showed nonspecific responses to plant foliar odorants cis-3-hexenyl acetate”. On the same count and under the same terms, then `C=C1CC/C=C(\C)CC[C@@H]2[C@@H]1CC2(C)C` [β-Caryophyllene], with “plant foliar odorants cis-3-hexenyl acetate, E2-hexenal, and β-caryophyllene”. The same measure, in the same setting: with `C=CC(=C)CCC=C(C)C` [β-Myrcene] the entry was “floral volatile compounds methyl 2-methoxybenzoate, β-myrcene, and ethyl butyrate”.
